Values quoted from earlier work as cited in US12115220B2, “Oral mucosal carrier and protectant” (Inspired Material Solutions, LLC, priority 2018, dated 2024).
Like-named read-outs stand apart in the source and are kept apart here.

[1] = 10 mg CBD+10 mg THC in an oral capsule
[2] = after buccal Sativex (10 mg THC+10 mg CBD)

Row | Compound | mean (SD) peak plasma concentration [1] | mean (SD) peak plasma concentration [2] | Time to maximum concentration (Tmax) (after buccal administration) | Time to maximum concentration (Tmax) (after oral administration) | plasma maximum concentrations (after a 20 mg dose of oral THC) | bioavailability (inhaled) | time of peak concentrations postdose (oral absorption)
1 | C=C(C)[C@@H]1CCC(C)=C[C@H]1c1c(O)cc(CCCCC)cc1O [CBD, cannabidiol] | 2.5 (2.2) μg/L | 3.0 (3.1) μg/L | 2.8 (1.3) h | 1.3 (0.8) h | – | – | –
2 | CCCCCc1cc(O)c2c(c1)OC(C)(C)[C@@H]1CCC(C)=C[C@@H]21 [THC, delta-9-tetrahydrocannabinol] | 6.4 (3.1) μg/L | 6.1 (5.4) μg/L | 2.4 (1.1) h | 1.0 (0.6) h | 4.4 to 11.0 µg/L | up to 27% | 1 to 5 h
